Experimental findings from patent US10100010B1, “4-methoxy pyrrole derivatives or salts thereof and pharmaceutical composition comprising the same” (Daewoong Pharmaceutical Co., Ltd., priority 2015, dated 2018) are described below.

A word on the ED50: it is the dose that gives a 50% effect, or the effect in half of the subjects.

For the assay, the system named is 100% ethanol (EtOH)-induced gastric damage in rats. The assay is described as follows: 100% ethanol (EtOH)-induced gastric damage in rats, gastric damage inhibition and mucus enhancement. The class given is in vivo, Sprague Dawley (SD) rats. Conditions: oral 3.0, 10.0 and 30.0 mg/kg, 1 hour before 100% EtOH. How it is done:
The inhibitory activity and defensive factor-enhancing effects of the compound prepared in Example 8 were measured using 100% ethanol (EtOH)-induced gastric damage model (Paul V. Tan et al., 2002, Journal of Ethnopharmacology, 82, p 69-74). Male Sprague Dawley (SD) rats (body weight 180-200 g) was fasted for 24 hours with free access to water. Control group was orally administered with 5 mL/kg of 0.5% methyl cellulose (MC) aqueous solution, and the other groups were orally administered with test compounds suspended in 0.5% MC aqueous solution at a dose of 3.0, 10.0 and 30.0 mg/kg/5 mL. For comparison, the compound of Example 134 (Comparative Example 1), the compound of Example 165 (Comparative Example 2) and the compound of Example 166 (Comparative Example 3) in International Patent Publication No. WO2006/036024 were orally administered at the same dose by suspending 0.5% MC aqueous solution, respectively. 1 hour after oral administration, 1 mL of 100% EtOH was orally administered. 1 hour after EtOH administration, the test animals were sacrificed to remove the stomach. Ten in the total 20 animals scraped the mucus of stomach with a slide glass and the mucus contents were analyzed to calculate ED50. […] The incised stomach was placed on a fixture, fixed by a fixing pin while spreading out using a forcep and then the gastric damage area was measured to calculate ED50.

Turning to `CNCc1cn(S(=O)(=O)c2cccc(F)c2)c(-c2ccc(F)cc2F)c1OC.Cl` [Example 8, 1-(5-(2,4-difluorophenyl)-1-((3-fluorophenyl)sulfonyl)-4-methoxy-1H-pyrrol-3-yl)-N-methylmethanamine hydrochloride], the ED50 (Rattus norvegicus, read-out: Mucus secretion ED50) was 12.2 mg/kg. The “Gastric index ED50” value (gastric damage area) is 13.4 mg/kg.
